From patent publication US20050176655A1, “Novel macrolide derivatives havaing effect of potentiating antifungal activity” (priority 2002, published 2005)

Legend:
Assay in all cases: Paper disk method, enhancing action for activities of azole antifungal agents
Type in all cases: cell-based
[1] = system: Candida albicans ATCC 64548; details: 24 hours; for Inhibition activity (inhibition ring mm) C. albicans ATCC 64548 GYM / Transparency of the inhibition ring C. albicans ATCC 64548 GYM: miconazole 0.03 μg/ml; for Inhibition activity (inhibition ring mm) C. albicans ATCC 64548 GYF / Transparency of the inhibition ring C. albicans ATCC 64548 GYF: fluconazole 0.5 μg/ml
Method: (§1) Test organisms used were Candida albicans ATCC 64548, fluconazole resistant Candida albicans ATCC 64550 and Aspergillus niger ATCC 6275. Candida spp. were cultured in Waksman broth (glucose 2.0%, peptone 0.5%, dry yeast 0.3%, meat extract 0.5%, NaCl 0.5% and CaCO3 0.3%, pH 7.0) at 27° C. for 40 hours, then 0.1% thereof was inoculated on GY agar medium (glucose 1.0%, yeast extract 0.5% and agar 0.8%, pH 6.0). Spore suspension 0.2% of Aspergillus niger ATCC 6275 was inoculated on GY agar medium.
(§2) Azole antifungal agents used were miconazole (Sigma Inc., the U.S.) and fluconazole (ICN Pharmaceuticals, Inc., the U.S.), and were added at concentrations without affecting growth on each test organisms follows.
Candida albicans ATCC 64548: miconazole 0.03 μg/ml or fluconazole 0.5 μg/ml.
(§3) In the above medium, a medium added with miconazole to GY medium (control) is designated as GYM, and a medium added with fluconazole is designated as GYF. Activities were assessed by means of paper disk method (thickness: 8 mm, ADVANTEC MFS INC., Japan). Diameter of inhibition ring is expressed with mm unit after culturing Candida spp. for 24 hours and Aspergillus niger ATCC 6275 for 48 hours. Transparency of the inhibition ring is assessed with 5 degrees of A, B, C, D and E (transparence<A<B<C<D<E<opaque).

[2] = system: Aspergillus niger ATCC 6275; details: 48 hours; for Inhibition activity (inhibition ring mm) A. niger ATCC 6275 GYF / Transparency of the inhibition ring A. niger ATCC 6275 GYF: fluconazole 10 μg/ml; for Inhibition activity (inhibition ring mm) A. niger ATCC 6275 GYM / Transparency of the inhibition ring A. niger ATCC 6275 GYM: miconazole 0.1 μg/ml; for Inhibition activity (inhibition ring mm) A. niger ATCC 6275 GY / Transparency of the inhibition ring A. niger ATCC 6275 GY: GY medium (control, no azole)
Method: as §1, §2
Aspergillus niger ATCC 6275: miconazole 0.1 μg/ml or fluconazole 10 μg/ml.
as §3

[3] = system: fluconazole resistant Candida albicans ATCC 64550; details: 24 hours; for Inhibition activity (inhibition ring mm) C. albicans ATCC 64550 GYF / Transparency of the inhibition ring C. albicans ATCC 64550 GYF: fluconazole 30 μg/ml; for Inhibition activity (inhibition ring mm) C. albicans ATCC 64550 GYM / Transparency of the inhibition ring C. albicans ATCC 64550 GYM: miconazole 0.15 μg/ml
Method: as §1, §2
Candida albicans ATCC 64550: miconazole 0.15 μg/ml or fluconazole 30 μg/ml.
as §3

| SMILES | Inhibition activity (inhibition ring mm) C. albicans ATCC 64548 GYM ([1]; 10 μg/8 mm disk) [mm] | Transparency of the inhibition ring C. albicans ATCC 64548 GYM ([1]; 10 μg/8 mm disk) | Inhibition activity (inhibition ring mm) C. albicans ATCC 64548 GYF ([1]; 50 μg/8 mm disk) [mm] | Transparency of the inhibition ring C. albicans ATCC 64548 GYF ([1]; 50 μg/8 mm disk) | Inhibition activity (inhibition ring mm) C. albicans ATCC 64548 GYM ([1]; 50 μg/8 mm disk) [mm] | Transparency of the inhibition ring C. albicans ATCC 64548 GYM ([1]; 50 μg/8 mm disk) | Inhibition activity (inhibition ring mm) A. niger ATCC 6275 GYF ([2]; 10 μg/8 mm disk) [mm] | Transparency of the inhibition ring A. niger ATCC 6275 GYF ([2]; 10 μg/8 mm disk) | Inhibition activity (inhibition ring mm) A. niger ATCC 6275 GYM ([2]; 10 μg/8 mm disk) [mm] | Transparency of the inhibition ring A. niger ATCC 6275 GYM ([2]; 10 μg/8 mm disk) | Inhibition activity (inhibition ring mm) A. niger ATCC 6275 GY ([2]; 50 μg/8 mm disk) [mm] | Transparency of the inhibition ring A. niger ATCC 6275 GY ([2]; 50 μg/8 mm disk) | Inhibition activity (inhibition ring mm) A. niger ATCC 6275 GYF ([2]; 50 μg/8 mm disk) [mm] | Transparency of the inhibition ring A. niger ATCC 6275 GYF ([2]; 50 μg/8 mm disk) | Inhibition activity (inhibition ring mm) A. niger ATCC 6275 GYM ([2]; 50 μg/8 mm disk) [mm] | Transparency of the inhibition ring A. niger ATCC 6275 GYM ([2]; 50 μg/8 mm disk) | Inhibition activity (inhibition ring mm) C. albicans ATCC 64550 GYF ([3]; 50 μg/8 mm disk) [mm] | Transparency of the inhibition ring C. albicans ATCC 64550 GYF ([3]; 50 μg/8 mm disk) | Inhibition activity (inhibition ring mm) C. albicans ATCC 64550 GYM ([3]; 50 μg/8 mm disk) [mm] | Transparency of the inhibition ring C. albicans ATCC 64550 GYM ([3]; 50 μg/8 mm disk) | further results |
| --- | --- | --- | --- | --- | --- | --- | --- | --- | --- | --- | --- | --- | --- | --- | --- | --- | --- | --- | --- | --- | --- |
| CCC(OC(=O)c1ccccc1)C(C)(O)C1OC(=O)C(C)C(OC2CC(C)(OC)C(OC(=O)c3ccccc3)C(C)O2)C(C)C(OC2OC(C)CC(N(C)C)C2O)C2(C)CC(C)=C(O2)C1C (stereo not shown) [Compound 778, 4″,13-Di-O-benzoyl-8,9-Anhydro-pseudo-erythromycin A 6,9-hemiketal] | 12 | B (Growth of test organism was inhibited 75% of more and 95% or less.) | 9 | D (Growth of test organism was inhibited 35% or more and 55% or less.) | 16 | A (Growth of test organism was inhibited 95% or more.) | 12 | E (Growth of test organism was inhibited 35% or less.) | 14 | E (Growth of test organism was inhibited 35% or less.) | 10 | E (Growth of test organism was inhibited 35% or less.) | 13 | D (Growth of test organism was inhibited 35% or more and 55% or less.) | 16 | A (Growth of test organism was inhibited 95% or more.) | 13 | B (Growth of test organism was inhibited 75% of more and 95% or less.) | 14 | B (Growth of test organism was inhibited 75% of more and 95% or less.) | Inhibition activity (inhibition ring mm) C. albicans ATCC 64550 GYF ([3]; 10 μg/8 mm disk): 10 mm; Transparency of the inhibition ring C. albicans ATCC 64550 GYF ([3]; 10 μg/8 mm disk): E (Growth of test organism was inhibited 35% or less.) |
| CCC(=O)OC1C(C)OC(OC2C(C)C(=O)OC(C(C)(O)C(CC)OC(=O)CC)C(C)C3=C(C)CC(C)(O3)C(OC3OC(C)CC(N(C)C)C3OC(C)=O)C2C)CC1(C)OC (stereo not shown) [Compound 771, 2′-O-acetyl-4″,13-Di-O-propionyl-8,9-Anhydro-pseudoerythromycin A 6,9-hemiketal] |  |  |  |  | 12 | D (Growth of test organism was inhibited 35% or more and 55% or less.) | 14 | E (Growth of test organism was inhibited 35% or less.) |  |  |  |  | 15 | E (Growth of test organism was inhibited 35% or less.) | 23 | E (Growth of test organism was inhibited 35% or less.) | 10 | E (Growth of test organism was inhibited 35% or less.) | 10 | A (Growth of test organism was inhibited 95% or more.) |  |
| CCCCCC(=O)OC1C(C)OC(OC2C(C)C(=O)OC(C(C)(O)C(CC)OC(=O)CCCCC)C(C)C3=C(C)CC(C)(O3)C(OC3OC(C)CC(N(C)C)C3O)C2C)CC1(C)OC (stereo not shown) [Compound 777, 4″,13-Di-O-hexanoyl-8,9-Anhydro-pseudo-erythromycin A 6,9-hemiketal] | 11 | D (Growth of test organism was inhibited 35% or more and 55% or less.) | 11 | D (Growth of test organism was inhibited 35% or more and 55% or less.) | 14 | A (Growth of test organism was inhibited 95% or more.) | 11 | E (Growth of test organism was inhibited 35% or less.) | 11 | E (Growth of test organism was inhibited 35% or less.) | 9 | E (Growth of test organism was inhibited 35% or less.) | 17 | D (Growth of test organism was inhibited 35% or more and 55% or less.) | 13 | B (Growth of test organism was inhibited 75% of more and 95% or less.) | 14 | A (Growth of test organism was inhibited 95% or more.) | 14 | A (Growth of test organism was inhibited 95% or more.) | Inhibition activity (inhibition ring mm) C. albicans ATCC 64550 GYF ([3]; 10 μg/8 mm disk): 11 mm; Transparency of the inhibition ring C. albicans ATCC 64550 GYF ([3]; 10 μg/8 mm disk): D (Growth of test organism was inhibited 35% or more and 55% or less.) |
| CCC(OC(=O)c1ccccc1)C(C)(O)C1OC(=O)C(C)C(OC2CC(C)(OC)C(OC(=O)c3ccccc3)C(C)O2)C(C)C(OC2OC(C)CC(N(C)C)C2OC(=O)c2ccccc2)C2(C)CC(C)=C(O2)C1C (stereo not shown) [Compound 770, 2′,4″,13-Tri-O-benzoyl-8,9-Anhydro-pseudoerythromycin A 6,9-hemiketal] | 11 | D (Growth of test organism was inhibited 35% or more and 55% or less.) |  |  | 14 | C (Growth of test organism was inhibited 55% or more and 75% or less.) | 11 | E (Growth of test organism was inhibited 35% or less.) |  |  | 11 | E (Growth of test organism was inhibited 35% or less.) | 18 | E (Growth of test organism was inhibited 35% or less.) | 12 | E (Growth of test organism was inhibited 35% or less.) | 13 | C (Growth of test organism was inhibited 55% or more and 75% or less.) | 13 | A (Growth of test organism was inhibited 95% or more.) | Inhibition activity (inhibition ring mm) C. albicans ATCC 64548 GYF ([1]; 100 μg/8 mm disk): 11 mm; Transparency of the inhibition ring C. albicans ATCC 64548 GYF ([1]; 100 μg/8 mm disk): D (Growth of test organism was inhibited 35% or more and 55% or less.) |
| CCC(=O)OC1C(C)OC(OC2C(C)C(=O)OC(C(C)(O)C(CC)OC(=O)CC)C(C)C3=C(C)CC(C)(O3)C(OC3OC(C)CC(N(C)C)C3O)C2C)CC1(C)OC (stereo not shown) [Compound 776, 4″,13-Di-O-propionyl-8,9-Anhydro-pseudo-erythromycin A 6,9-hemiketal] |  |  |  |  | 11 | D (Growth of test organism was inhibited 35% or more and 55% or less.) | 16 | E (Growth of test organism was inhibited 35% or less.) |  |  |  |  | 16 | E (Growth of test organism was inhibited 35% or less.) | 20 | C (Growth of test organism was inhibited 55% or more and 75% or less.) | 9 | E (Growth of test organism was inhibited 35% or less.) | 11 | E (Growth of test organism was inhibited 35% or less.) | Inhibition activity (inhibition ring mm) C. albicans ATCC 64548 GYF ([1]; 100 μg/8 mm disk): 15 mm; Transparency of the inhibition ring C. albicans ATCC 64548 GYF ([1]; 100 μg/8 mm disk): E (Growth of test organism was inhibited 35% or less.) |
